Assays:
[1] = NMR spectra of mixtures of loop peptide and O-phosphoethanolamine; format: binding; settings: mixture with O-phosphoethanolamine
Source text: NMR is used to characterize the interactions between the extracellular loops and O-phosphoethanolamine, a mimic of the S1P4 endogenous ligand to determine if potential for ligand binding exists.
The most important NMR result for the characterization of the interaction between the constrained peptides and O-phosphoethanolamine are heteronuclear 2D-NOE that allow derivation of the distances between the cationic nitrogens of R121 and R287 and the phosphate phosphorous atom of O-phosphoethanolamine. Additional information is derived from chemical shift changes of the protons in residues of the loop peptides upon addition of the phosphoethanolamine as well as chemical shift changes of protons on the phosphoethanolamine. Such chemical shift changes are indicative of changes in the electronic environment of these protons and are used in high-throughput NMR assays of ligand binding. (Shuker, S. B., Hajduk, P. J., Meadows, R. P. & Fesik, S. W. Discovering High-Affinity Ligands for Proteins: SAR by NMR. Science 274, 1531-1534 (1996)).

[2] = target: T1, human S1P4 (formerly Edg 6) (Homo sapiens, UniProt O95977); test: phospho ERK 1/2 ELISA in CHO cells stably transfected with human S1P4; format: cell-based; settings: CHO EDG6 (S1P4); 10 nM S1P, no antibody
T1 sequence (O95977 1-384): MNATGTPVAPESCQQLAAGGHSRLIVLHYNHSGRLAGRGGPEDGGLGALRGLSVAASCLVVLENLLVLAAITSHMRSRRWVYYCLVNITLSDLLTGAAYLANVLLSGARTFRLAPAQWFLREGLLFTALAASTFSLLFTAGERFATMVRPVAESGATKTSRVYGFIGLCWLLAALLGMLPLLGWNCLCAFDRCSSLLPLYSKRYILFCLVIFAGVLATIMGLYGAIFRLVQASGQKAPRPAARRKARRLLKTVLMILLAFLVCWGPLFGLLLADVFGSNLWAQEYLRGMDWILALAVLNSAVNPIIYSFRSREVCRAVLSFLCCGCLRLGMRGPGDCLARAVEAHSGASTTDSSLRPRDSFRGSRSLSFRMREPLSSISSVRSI
Method: (§1) For example, CHO cells that are stably transfected with human S1P4 (formerly Edg 6) a GPCR (g protein coupled receptor) for sphingosine 1-phosphate (S1P) a lipid growth factor mediator or mock transfected CHO control cells are washed in DMEM and starved of serum for 4 hours at 37° C.
(§2) One million cells in 1 ml serum free DMEM were challenged with monoclonal antibodies that had been raised against a S1P4 cyclic molecular mimic loop 1B structure described herein for 10 minutes at room temperature. Monoclonal antibody supernatants containing DMEM with 10% fetal bovine serum antibiotics, L glutamine media supplements, were pretreated with cell culture tested Norite™ (Sigma Chemical Company) for 24 hours at 4 C to remove endogenous S1P from the media prior to the addition of supernatant to cells. Following antibody addition and incubation, 10 nM S1P was added for 15 minutes at 37 C. Controls of media alone, media and Norite™, media and 10 nM S1P, media-Norite™ and SIP, and media PMA were included. [drawing]

[3] = system: mock transfected CHO control cells; test: phospho ERK 1/2 ELISA in mock transfected CHO control cells; format: cell-based; settings: 10 nM S1P, no antibody
Method: as §1, §2

Molecule	ligand binding by NMR [1]	phospho ERK 1/2 [2] [ng/mL]	phospho ERK 1/2 [3] [ng/mL]
TGAYLANVLLSGARTFRLAPAQWFLREGCLFT [Loop 1 B, conformationally constrained (disulfide) peptide mimicking S1P4 extracellular loop 1]	reflect ligand binding	–	–
CCCCCCCCCCCCC/C=C/[C@@H](O)[C@@H](N)COP(=O)(O)O [Clone S1P, sphingosine 1-phosphate]	–	1.280	0.000
FLVWGPLFGLLLADVFGSNLWAQEYLRGMDWILAAVL [Loop 3, conformationally constrained peptide mimicking S1P4 extracellular loop 3]	reflect ligand binding	–	–

— patent publication US20050079549A1, “Methods for modeling GPCRs and for producing ligand blocking and receptor activating antibodies for same” (priority 2003, published 2005)
